One assay has as its target T1, KCNQ2/3 channels (Homo sapiens, UniProt O43525+O43526).
T1 construct: expressed in transfected cells
Put plainly: Fluorescence assay using a voltage sensitive dye (fluorimetry). The settings on record: CHO-K1 cells expressing KCNQ2/3 channels; for EC50: agonistic activity; for Emax: read-out: Fluorimetry % efficacy (retigabine 50 μM = 100%). It counts as cell-based. The method, boiled down: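 Agonist EC50s come from the F2 vs F1 fluorescence comparison, F2 taken at the peak after KCl depolarisation (92 mM final) and F1 after 30 min compound exposure at room temperature. Assay uses KCNQ2/3-expressing CHO-K1 cells stained 45 min with a red voltage-sensitive dye in pH 7.4 ES buffer.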

In another assay the test system is Sprague-Dawley rats. Put plainly: Low-intensity tail flick in the rat. It counts as in vivo. The conditions noted are these: for inhibition in vivo at 21.5 mg/kg / ED50 / inhibition in vivo at 10 mg/kg / inhibition in vivo at 4.64 mg/kg: po; for inhibition in vivo at 21.5 mg/kg / inhibition in vivo at 10 mg/kg / inhibition in vivo at 4.64 mg/kg: MPE, read-out: Low-intensity tail flick rat p.o. % effect (dose [mg/kg]). An excerpt: Low-Intensity Tail Flick in the Rat
The antinociceptive effectiveness of the test substance towards an acute, noxious thermal stimulus was studied in the focal ray (tail flick) test in the rat according to the method of D'Amour and Smith (J. Pharm. Exp. Ther. 72, 74 79 (1941)). Male Sprague-Dawley rats (breeder: Janvier, Le Genest St. Isle, France) weighing from 200 to 250 g were used for this purpose. The animals were accommodated individually in special test compartments and the base of the tail was exposed to the focused ray of an analgesia meter (model 2011, Rhema Labortechnik, Hofheim, Germany). 10 animals were used per group. Before a substance according to the invention was administered, the withdrawal latency (time from switching on of the focal ray to the sudden withdrawal of the tail) was determined twice at an interval of five minutes and the mean value was defined as the control latency time. The intensity of the focal ray was chosen so that the control latency time was 7 to 9 seconds. Measurement of the withdrawal latency was then repeated 10, 20, 30 and 60 minutes after peroral administration of substance. The antinociceptive action of the test substance was determined as the increase in the withdrawal latency time according to the following formula: MPE[%]=[(T1−T0)/(T2−T0)]×100 where: T0=control latency time before administration of substance, T1=latency time after administration of substance, T2=maximum exposure time to the focal ray (30 seconds), MPE=maximum possible effect.
Variance analysis (repeated measures ANOVA) was used to test for statistically significant differences between the substance group and the vehicle group. The level of significance was set at ≦0.05.

Compound `CC(CCc1cccc(C(F)(F)F)c1)Sc1ncccc1C(=O)NCc1cccs1` (stereo not drawn) [compound 107, 2-[[1-Methyl-3-[3-(trifluoromethyl)phenyl]-propyl]sulfanyl]-N-(thiophen-2-yl-methyl)-pyridine-3-carboxylic acid amide] gave an EC50 at KCNQ2/3 channels of 57 nM. In addition, the Emax on KCNQ2/3 channels (retigabine 50 μM = 100%) amounted to 119%. Also, the inhibition in vivo at 21.5 mg/kg with Sprague-Dawley rats was found to be 20%.

In turn, `CC(C)(C)CCNC(=O)c1cccnc1SCCC(F)(F)c1ccc(F)cc1` [compound 116, 2-[[3,3-Difluoro-3-(4-fluorophenyl)-propyl]sulfanyl]-N-(3,3-dimethyl-butyl)-pyridine-3-carboxylic acid amide] yielded an EC50 at KCNQ2/3 channels of 62 nM. In addition, on KCNQ2/3 channels (retigabine 50 μM = 100%), the Emax came out at 186%. In the assay on Sprague-Dawley rats, this compound came in with an ED50 of 5.4 mg/kg.

Consider `O=C(NCc1ccc(F)cc1)c1cccnc1SCCC(F)(F)c1ccc(F)cc1` [compound 124, 2-[[3,3-Difluoro-3-(4-fluorophenyl)-propyl]sulfanyl]-N-[(4-fluorophenyl)-methyl]-pyridine-3-carboxylic acid amide], for which the EC50 on KCNQ2/3 channels was found to be 17 nM. Further, the Emax at KCNQ2/3 channels (retigabine 50 μM = 100%) was 114%. The compound also showed an ED50 in the assay with Sprague-Dawley rats of 3.5 mg/kg.

For the compound `CC(C)CCNC(=O)c1cccnc1SCCCc1ccc(F)cc1` [compound 133, 2-[3-(4-Fluorophenyl)-propylsulfanyl]-N-(3-methyl-butyl)-pyridine-3-carboxylic acid amide], the EC50 on KCNQ2/3 channels was found to be 106 nM. Further, the Emax on KCNQ2/3 channels (retigabine 50 μM = 100%) came to 185%. Further, the inhibition in vivo at 10 mg/kg in the assay with Sprague-Dawley rats is 61%.

For the compound `O=C(NCC1CCCCO1)c1cccnc1SCCCc1ccc(F)cc1` (stereo not drawn) [compound 134, 2-[3-(4-Fluorophenyl)-propylsulfanyl]-N-(tetrahydro-pyran-2-yl-methyl)-pyridine-3-carboxylic acid amide], the EC50 on KCNQ2/3 channels is 268 nM. Also, the Emax on KCNQ2/3 channels (retigabine 50 μM = 100%) turned out to be 224%. Moreover, the inhibition in vivo at 21.5 mg/kg in the assay on Sprague-Dawley rats is 40%.

On to `O=C(NCC1C2CCC1CC2)c1cccnc1SCCC(F)(F)c1ccc(F)cc1` (stereo not drawn) [compound 164, N-(7-Bicyclo[2.2.1]heptanyl-methyl)-2-[[3,3-difluoro-3-(4-fluorophenyl)-propyl]sulfanyl]-pyridine-3-carboxylic acid amide], for which, on KCNQ2/3 channels, the EC50 worked out at 32 nM. Also, at KCNQ2/3 channels (retigabine 50 μM = 100%), the Emax came out at 287%. In the assay on Sprague-Dawley rats, the inhibition in vivo at 4.64 mg/kg is 20%.

In the case of `CC(C)CCNC(=O)c1cccnc1SCCC(F)(F)c1ccc(F)cc1` [compound 169], at KCNQ2/3 channels, the response was half-maximal at 19 nM (EC50). Also, the “Fluorimetry % efficacy (retigabine 50 μM = 100%)” value on KCNQ2/3 channels (retigabine 50 μM = 100%) came to 224%. The “Low-intensity tail flick rat p.o. ED50” value in the assay on Sprague-Dawley rats is given as “ED50 2.7 mg/kg”.

`CCCCNC(=O)c1cccnc1SCCC(F)(F)c1ccc(F)cc1` [compound 170, N-Butyl-2-[[3,3-difluoro-3-(4-fluorophenyl)-propyl]sulfanyl]-pyridine-3-carboxylic acid amide]: a half-maximal effect on KCNQ2/3 channels (EC50) was put at 24 nM. The Emax at KCNQ2/3 channels (retigabine 50 μM = 100%) came to 229%. Further, the inhibition in vivo at 4.64 mg/kg in the assay on Sprague-Dawley rats was found to be 20%.

`O=C(NCC1CCCCO1)c1cccnc1SCCC(F)(F)c1ccc(F)cc1` (stereo not drawn) [compound 180, 2-[[3,3-Difluoro-3-(4-fluorophenyl)-propyl]sulfanyl]-N-(tetrahydro-pyran-2-yl-methyl)-pyridine-3-carboxylic acid amide] displayed a concentration for a half-maximal effect (EC50) at KCNQ2/3 channels of 47 nM. Also, the Emax on KCNQ2/3 channels (retigabine 50 μM = 100%) came to 224%. The inhibition in vivo at 10 mg/kg with Sprague-Dawley rats was determined as 64%.

One may read the EC50 as the concentration at which the effect is half-maximal. Usually ED50 stands for the midpoint of the dose-response relation. Read a low ED50 as an effect at a small dose.

Source of the values: patent US8586755B2, “Substituted nicotinamides as KCNQ2/3 modulators” (Grünenthal GmbH, priority 2009, dated 2013).
